Consider 21 compounds from patent publication US6482948B1, “Thienopyrimidine compounds and salts thereof and process for the preparation of the same” (Nippon Soda Co., Ltd., priority 1999, dated 2002).

Broadly, the IC50 is the midpoint of a concentration-inhibition curve. As a reminder, the EC50 is the concentration that produces a half-maximal response. A low value points to an effect from little substance. The term melting point denotes the temperature, or range, at which the solid turns liquid.

The target of series [1] is T1, PDE 5 (cGMP specific PDE) (Homo sapiens, UniProt O76074).
T1 construct: from tissue; host or cells: human platelets
As to the kind of experiment: Phosphodiesterase inhibiting activity, PDE 5. It counts as biochemical. The following applies: isozyme from human platelets; 1 μM [3H]-cAMP or [3H]-cGMP; read-out: Inhibition of PDE Activity: IC50 PDE 5. How it is done:
(§1) Pharmacological Test Example 1: Phosphodiesterase Inhibiting Activity
(§2) Cyclic nucleotide phosphodiesterases from human platelets and from the heart and kidney of a dog were eluted by the concentration gradient method with 70 to 1000 mM of sodium acetate on DEAE-cellulose column chromatography (Whatman Co. Ltd., DE-52, φ3.2×13 cm) according to the method of Thompson and others (Thompson W. J., et al., Advances in Cyclic Nucleotide Research: 10, 69-92, 1979), and separated into isozymes. PDE 5 (cGMP specific PDE) and PDE 3 (cGMP inhibitable cAMP PDE) were separated from the platelets, PDE 1 (Ca-calmodulin activatable PDE) from the heart, and PDE 4 (cGMP non-inhibitable cAMP PDE) from the kidney. The method of Thompson, et al was partially modified to measure phosphodiesterase activities: 1 μM of [3H]-cAMP or [3H]-cGMP was decomposed with phosphodiesterase. The produced 5′-AMP or 5′-GMP was decomposed to adenosine or guanosine with a snake venom (Sigma V7000). The reaction solution was added to anion exchange resin (Bio-Rad Co. Ltd., AG1-X8). Non-adsorbed adenosine or guanosine was counted by a liquid scintillation counter. A concentration causing 50% inhibition of the enzyme activity (IC50) was calculated from concentration inhibition curves.

Series [2] has as its target T2, PDE 2 (Homo sapiens, UniProt O00408).
T2 construct: eluted by the concentration gradient method with 70 to 1000 mM of sodium acetate on DEAE-cellulose column chromatography; from tissue
As to the kind of experiment: Phosphodiesterase inhibiting activity, PDE 2. The format is biochemical. The following applies: 1 μM [3H]-cAMP or [3H]-cGMP; source of isozyme not given; read-out: Inhibition of PDE Activity: IC50 PDE 2. As for the experimental part:
[Worded in the source for another target; this target is reported under the same test.] as §1, §2

In series [3] the test system is thoracic aortas. Nature of the series: Vasodilating activity, phenylephrine-contracted thoracic aorta ring preparations (Magnus method). Further details: species or system Sprague-Dawley male rats. Conditions: rat thoracic aorta ring preparations contracted with 1 μM phenylephrine, 37° C., drug added cumulatively. As for the experimental part:
Pharmacological Test Example 2: Vasodilating Activity
A vasodilating activity was assessed according to the method of Ken-ichi Hirata and Mitsuhiro Yokoyama (Arteriosclerosis and Hyperlipemia Research Strategies, published by Shujunsha (Japan), pages 275-277, 1996): The thoracic aortas were extracted from Sprague-Dawley male rats (weighing 180 to 360 g). After unnecessary connective tissues were removed, the aortas were cut to 5mm-long pieces to make ring strip preparations, and assessed by the Magnus method (37° C.). A nutrient solution used was a Krebs-Henseleit solution aerated with 5% carbon dioxide gas and 95% oxygen gas. Specimens were equilibrated for about 60 minutes, and then contracted by adding 1 μM of phenylephrine. 1 μM of acetylcholine was added at the second phenylepherine-induced contraction in order to confirm an endothelial cell dependent relaxation response. At the third phenylepherine-induced contraction, a drug to test was added cumulatively, and the relaxation action was observed. Drugs to test were all dissolved in DMSO to use for the tests. The tested drugs were assessed by 50% relaxation rates (EC50) obtained from vasodilation rates to respective concentrations (the maximum relaxation was measured by adding 100 μM of papaverine).

Series [4] deals with PDE 4 (cGMP non-inhibitable cAMP PDE). As to the kind of experiment: Phosphodiesterase inhibiting activity, PDE 4. It counts as biochemical. The following applies: isozyme from dog kidney; 1 μM [3H]-cAMP or [3H]-cGMP; read-out: Inhibition of PDE Activity: IC50 PDE 4. As for the experimental part: as §1, §2
The target in series [5] is T3, PDE 3 (cGMP inhibitable cAMP PDE) (Homo sapiens, UniProt Q14432).
T3 construct: from tissue; host or cells: human platelets
As to the kind of experiment: Phosphodiesterase inhibiting activity, PDE 3. The format is biochemical. Conditions: isozyme from human platelets; 1 μM [3H]-cAMP or [3H]-cGMP; read-out: Inhibition of PDE Activity: IC50 PDE 3. How it is done:
as §1, §2

For series [6], the target named is PDE 1 (Ca-calmodulin activatable PDE). As to the kind of experiment: Phosphodiesterase inhibiting activity, PDE 1. The following applies: isozyme from dog heart; 1 μM [3H]-cAMP or [3H]-cGMP; read-out: Inhibition of PDE Activity: IC50 PDE 1. It counts as biochemical. As for the experimental part: as §1, §2

T2 sequence (O00408 whole entry): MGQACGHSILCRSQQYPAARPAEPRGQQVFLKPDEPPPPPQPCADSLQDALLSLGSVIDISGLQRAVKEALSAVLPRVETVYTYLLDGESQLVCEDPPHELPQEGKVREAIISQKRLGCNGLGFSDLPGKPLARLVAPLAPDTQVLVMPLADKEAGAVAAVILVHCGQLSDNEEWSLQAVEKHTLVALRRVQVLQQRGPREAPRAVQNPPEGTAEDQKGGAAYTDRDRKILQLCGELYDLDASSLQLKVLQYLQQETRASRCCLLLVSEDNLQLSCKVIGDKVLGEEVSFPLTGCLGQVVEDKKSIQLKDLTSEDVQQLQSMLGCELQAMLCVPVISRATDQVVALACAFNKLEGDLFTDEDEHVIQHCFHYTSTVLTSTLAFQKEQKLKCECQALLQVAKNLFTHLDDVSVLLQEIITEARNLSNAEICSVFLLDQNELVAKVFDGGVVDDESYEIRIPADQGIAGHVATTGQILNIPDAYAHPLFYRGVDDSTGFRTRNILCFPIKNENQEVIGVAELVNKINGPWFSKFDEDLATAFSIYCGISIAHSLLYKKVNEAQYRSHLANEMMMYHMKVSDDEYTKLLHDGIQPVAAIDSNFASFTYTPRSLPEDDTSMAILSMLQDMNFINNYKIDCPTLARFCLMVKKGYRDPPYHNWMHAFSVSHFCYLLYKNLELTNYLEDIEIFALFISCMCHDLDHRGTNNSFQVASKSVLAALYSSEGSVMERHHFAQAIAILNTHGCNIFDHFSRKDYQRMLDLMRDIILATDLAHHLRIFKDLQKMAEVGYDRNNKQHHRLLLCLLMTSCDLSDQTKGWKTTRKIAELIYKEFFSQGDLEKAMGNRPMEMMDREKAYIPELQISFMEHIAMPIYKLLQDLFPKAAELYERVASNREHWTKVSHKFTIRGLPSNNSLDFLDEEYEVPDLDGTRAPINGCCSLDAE
T3 sequence (Q14432 whole entry): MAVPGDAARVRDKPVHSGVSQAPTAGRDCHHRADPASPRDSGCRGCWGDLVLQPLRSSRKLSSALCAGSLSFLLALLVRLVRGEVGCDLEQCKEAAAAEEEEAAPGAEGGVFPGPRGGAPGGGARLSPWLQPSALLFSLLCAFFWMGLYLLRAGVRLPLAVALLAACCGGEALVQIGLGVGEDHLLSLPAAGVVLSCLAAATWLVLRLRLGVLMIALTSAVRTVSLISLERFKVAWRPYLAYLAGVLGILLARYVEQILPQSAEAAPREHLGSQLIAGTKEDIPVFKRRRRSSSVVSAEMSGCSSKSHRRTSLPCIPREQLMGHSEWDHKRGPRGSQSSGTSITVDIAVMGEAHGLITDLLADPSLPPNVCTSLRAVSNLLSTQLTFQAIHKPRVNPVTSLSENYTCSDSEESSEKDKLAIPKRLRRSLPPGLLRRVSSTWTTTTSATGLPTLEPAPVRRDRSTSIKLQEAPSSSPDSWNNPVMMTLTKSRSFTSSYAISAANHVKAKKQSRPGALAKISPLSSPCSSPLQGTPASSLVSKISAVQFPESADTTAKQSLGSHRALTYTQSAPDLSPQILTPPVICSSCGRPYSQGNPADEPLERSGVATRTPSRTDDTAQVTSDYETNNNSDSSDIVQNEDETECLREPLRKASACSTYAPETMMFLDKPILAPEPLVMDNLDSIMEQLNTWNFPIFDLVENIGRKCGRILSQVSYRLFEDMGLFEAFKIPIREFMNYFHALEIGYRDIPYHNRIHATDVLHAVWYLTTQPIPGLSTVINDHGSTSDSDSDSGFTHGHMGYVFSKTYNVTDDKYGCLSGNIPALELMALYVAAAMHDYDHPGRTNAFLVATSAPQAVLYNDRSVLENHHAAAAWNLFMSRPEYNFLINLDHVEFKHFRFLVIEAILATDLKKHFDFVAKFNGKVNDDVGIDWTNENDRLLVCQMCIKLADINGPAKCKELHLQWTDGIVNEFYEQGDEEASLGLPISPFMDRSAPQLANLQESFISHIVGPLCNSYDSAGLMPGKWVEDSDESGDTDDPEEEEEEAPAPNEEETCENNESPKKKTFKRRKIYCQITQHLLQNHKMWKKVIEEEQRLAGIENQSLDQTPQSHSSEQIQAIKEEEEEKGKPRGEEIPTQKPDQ

For `COc1ccc(CNc2nc(-c3ccc4c(c3)OCO4)nc3sc4c(c23)CCN(Cc2ccccc2)C4)cc1Cl` [1-1], the IC50 was 0.92 nM in series [1]; 3900 nM in series [2]; more than 10000 nM in series [4]; more than 10000 nM in series [5]; more than 10000 nM in series [6]. Also, a half-maximal effect in series [3] (EC50) was put at 86 nM.

Consider `COc1ccc(CNc2nc(-c3cccnc3)nc3sc4c(c23)CCN(Cc2ccccc2)C4)cc1Cl` [1-4], for which the concentration for half-maximal inhibition (IC50) was 2.6 nM in series [1]; 2700 nM in series [2]; 2000 nM in series [4]; 6100 nM in series [5]; more than 10000 nM in series [6]. In series [3], this compound yielded a 50% effective concentration (EC50) of 19 nM.

In turn, `COc1ccc(CNc2nc(-c3cccnc3)nc3sc4c(c23)CCN(C(C)=O)C4)cc1Cl` [1-9, 5,6,7,8-tetrahydro-4-[(3-chloro-4-methoxy)benzylamino]-7-acetyl-2-(3-pyridyl)pyrido[4′,3′:4,5]thieno[2,3-d]pyrimidine] displayed a melting point of 226 to 227 °C. In series [3], this compound came in with an EC50 of 6.3 nM.

As to `CCOC(=O)N1CCc2c(sc3nc(-c4cccnc4)nc(NCc4ccc(OC)c(Cl)c4)c23)C1` [1-15, 5,6,7,8-tetrahydro-4-[(3-chloro-4-methoxy)benzylamino]-7-ethoxycarbonyl-2-(3-pyridyl)pyrido[4′,3′:4,5]thieno[2,3-d]pyrimidine], in series [3], a half-maximal response (EC50) required 2.1 nM.

Consider `CCOc1ccccc1NC(=O)c1nc(NCc2ccc(OC)c(Cl)c2)c2c3c(sc2n1)CN(C(C)C)CC3` [1-55], for which the IC50 in series [1] was 62 nM; in series [2], more than 10000 nM; in series [4], 2000 nM; in series [5] it was more than 10000 nM; in series [6], more than 10000 nM. In series [3], this compound yielded an EC50 of 180 nM.

In the case of `COc1ccc(CNc2nc(C(=O)Nc3nccs3)nc3sc4c(c23)CCN(C)C4)cc1Cl` [1-57], the half-inhibitory concentration (IC50) in series [1] is 0.55 nM; in series [2], more than 10000 nM; in series [4], more than 10000 nM; in series [5] it was more than 10000 nM; in series [6], more than 10000 nM. Further, in series [3], the 50% effective concentration (EC50) stood at 2.7 nM.

Take `COc1ccc(CNc2nc(C(=O)Nc3ccncc3)nc3sc4c(c23)CCN(C)C4)cc1Cl` [1-58]: the IC50 is 2.1 nM in series [1]; more than 10000 nM in series [2]; more than 10000 nM in series [4]; more than 10000 nM in series [5]; more than 10000 nM in series [6]. The compound also yielded an EC50 in series [3] of 5.1 nM.

Take `COc1ccc(CNc2nc(C(=O)Nc3ccc(-n4ccnc4)cc3)nc3sc4c(c23)CCN(C)C4)cc1Cl` [1-59]: the IC50 is 78 nM in series [1]; 6100 nM in series [2]; 3400 nM in series [4]; 7600 nM in series [5]; more than 10000 nM in series [6]. For the same compound, the concentration for a half-maximal effect (EC50) in series [3] is 7.6 nM.

For `COc1ccc(CNc2nc(C(=O)Nc3ccccc3Cl)nc3sc4c(c23)CCN(C)C4)cc1Cl` [1-60], the IC50 in series [1] is 14 nM; in series [2], more than 10000 nM; in series [4] it was 3600 nM; in series [5] it was more than 10000 nM; in series [6], more than 10000 nM. In series [3], this compound displayed an EC50 of 7.5 nM.

`COc1ccc(CNc2nc(C(=O)Nc3ccc(Cl)cc3)nc3sc4c(c23)CCN(C)C4)cc1Cl` [1-61, 5,6,7,8-tetrahydro-4-[(3-chloro-4-methoxy)benzylamino]-7-methylpyrido[4′,3′:4,5]thieno[2,3-d]pyrimidine-2-N-(4-chlorophenyl)carboxamide]: the IC50 in series [1] is 0.92 nM; in series [2], more than 10000 nM; in series [4], more than 10000 nM; in series [5], more than 10000 nM; in series [6], more than 10000 nM. This compound gave an EC50 in series [3] of 8.7 nM.

For `COc1ccc(NC(=O)c2nc(NCc3ccc(OC)c(Cl)c3)c3c4c(sc3n2)CN(C)CC4)cc1` [1-62], the IC50 is 2.4 nM in series [1]; more than 10000 nM in series [2]; more than 10000 nM in series [4]; more than 10000 nM in series [5]; more than 10000 nM in series [6]. In series [3], this compound returned an EC50 of 7.2 nM.

Turning to `COc1ccc(CNc2nc(C(=O)NC3CCCCC3)nc3sc4c(c23)CCN(C)C4)cc1Cl` [1-63], the 50% inhibitory concentration (IC50) in series [1] was 0.38 nM; in series [2] it was more than 10000 nM; in series [4] it was more than 10000 nM; in series [5], more than 10000 nM; in series [6], more than 10000 nM. Moreover, the EC50 in series [3] came to 4.8 nM.

In the case of `COc1ccc(CNc2nc(C(=O)Nc3ccccc3)nc3sc4c(c23)CCN(Cc2ccccc2)C4)cc1Cl` [1-67], the IC50 in series [1] is 0.39 nM; in series [2], more than 10000 nM; in series [4], more than 10000 nM; in series [5], more than 10000 nM; in series [6] it was more than 10000 nM. Further, a half-maximal response in series [3] (EC50) required 82 nM.

For the compound `CCOC(=O)c1nc(NCc2ccc(OC)c(Cl)c2)c2c3c(sc2n1)CN(C)CC3` [1-69, ethyl 5,6,7,8-tetrahydro-4-[(3-chloro-4-methoxy)benzylamino]-7-methylpyrido[4′,3′:4,5]thieno[2,3-d]pyrimidine-2-carboxylate], the half-inhibitory concentration (IC50) is 31 nM in series [1]; more than 10000 nM in series [2]; more than 10000 nM in series [4]; more than 10000 nM in series [5]; more than 10000 nM in series [6]. In series [3], it took 18 nM to reach a half-maximal effect (EC50).

As to `COc1ccc(CNc2nc(C(=O)Nc3ccccc3)nc3sc4c(c23)CCN(C)C4)cc1Cl` [1-72], the IC50 in series [1] is 1.8 nM; in series [2] it was more than 10000 nM; in series [4], more than 10000 nM; in series [5] it was more than 10000 nM; in series [6], more than 10000 nM. The EC50 in series [3] was found to be 7.4 nM.

For `COc1ccc(CNc2nc(C(=O)Nc3ccccc3)nc3sc4c(c23)CCN(C(C)C)C4)cc1Cl` [1-75], the IC50 in series [1] is 1.4 nM; in series [2], more than 10000 nM; in series [4] it was 8400 nM; in series [5], more than 10000 nM; in series [6], more than 10000 nM. For the same compound, a half-maximal response in series [3] (EC50) required 9.3 nM.

For the compound `COc1ccc(CNc2nc(C(=O)NCc3ccccc3)nc3sc4c(c23)CCN(C)C4)cc1Cl` [1-79], the 50% inhibitory concentration (IC50) in series [1] was 16 nM; in series [2], more than 10000 nM; in series [4], 5100 nM; in series [5] it was more than 10000 nM; in series [6] it was 670 nM. This compound came in with an EC50 in series [3] of 18 nM.

In the case of `COC(=O)c1ccc(NC(=O)c2nc(NCc3ccc(OC)c(Cl)c3)c3c4c(sc3n2)CN(C)CC4)cc1` [1-80], the IC50 in series [1] was 53 nM; in series [2], 3300 nM; in series [4], 4100 nM; in series [5] it was more than 10000 nM; in series [6], more than 10000 nM. Moreover, a half-maximal response in series [3] (EC50) required 25 nM.

For `COc1ccc(CNc2nc(C(N)=O)nc3sc4c(c23)CCN(C)C4)cc1Cl` [1-83], the IC50 in series [1] was 75 nM; in series [2], 3100 nM; in series [4], more than 10000 nM; in series [5], more than 10000 nM; in series [6], 1300 nM.

In the case of `CCOC(=O)Cc1nc(NCc2ccc(OC)c(Cl)c2)c2c3c(sc2n1)C(=O)N(C(C)C)CC3` [2-10], the concentration for half-maximal inhibition (IC50) in series [1] is 39 nM; in series [2], more than 10000 nM; in series [4] it was 8000 nM; in series [5], 7400 nM; in series [6], more than 10000 nM. In series [3], this compound returned an EC50 of 18 nM.

On to `COc1ccc(CNc2nc(C(=O)Nc3ccccc3)nc3sc4c(c23)CCCC4)cc1Cl` [3-2], for which the melting point lay in the range of 210 to 211 °C. Also, the IC50 in series [1] stood at 0.39 nM. Moreover, the IC50 in series [2] was more than 10000 nM. Moreover, the IC50 in series [4] was more than 10000 nM. Moreover, the IC50 in series [5] is more than 10000 nM. The IC50 in series [6] was more than 10000 nM.
